{
  "source": "ChEMBL document CHEMBL6103576",
  "about": "“Design, synthesis, and antiviral activity of fragmented-lapatinib aminoquinazoline analogs towards SARS-CoV-2 inhibition” (Eur J Med Chem, 2025)",
  "key": {"[1]": {"biological_target": "Replicase polyprotein 1ab (Severe acute respiratory syndrome coronavirus 2) (UniProt P0DTD1)", "assay": "Inhibition of SARS-CoV-2 MPro using E(EDAS)TSAVLQSGFRK(DABCYL) as substrate at 100 uM by fluorescence based analysis relative to control"}, "[2]": {"assay": "Cytotoxicity against African green monkey Vero E6 cells assessed as cell viability at 50 uM incubated for 48 hrs by CellTiter96 assay relative to control", "format": "toxicity, cell-based, Vero C1008", "details": "chlorocebus sabaeus, read-out: Activity"}, "SARS-CoV-2 [3]": {"system": "SARS-CoV-2", "assay": "Antiviral activity against SARS-CoV-2 infected in Vero E6 cells assessed as inhibition of viral replication at 50 uM measured for 72 hrs relative to control", "format": "functional", "details": "Severe acute respiratory syndrome coronavirus 2, Vero C1008"}, "[4]": {"biological_target": "Replicase polyprotein 1ab (Severe acute respiratory syndrome coronavirus 2, UniProt P0DTD1)", "assay": "Inhibition of SARS-CoV-2 MPro using E(EDAS)TSAVLQSGFRK(DABCYL) as substrate by fluorescence based analysis"}, "SARS-CoV-2 [5]": {"system": "SARS-CoV-2", "assay": "Antiviral activity against SARS-CoV-2 infected in Vero E6 cells assessed as inhibition of viral replication at 10 uM measured for 72 hrs relative to control", "format": "functional", "details": "Severe acute respiratory syndrome coronavirus 2, Vero C1008"}, "Vero C1008": {"system": "Vero C1008", "assay": "Cytotoxicity against African green monkey Vero E6 cells assessed as cell viability at 10 uM incubated for 48 hrs by CellTiter96 assay", "format": "toxicity, cell-based", "details": "chlorocebus sabaeus, vero c1008, 48 h"}, "SARS-CoV-2 [6]": {"system": "SARS-CoV-2", "assay": "Antiviral activity against SARS-CoV-2 infected in Vero E6 cells assessed as inhibition of viral replication measured for 72 hrs", "format": "functional, organism-based", "details": "Severe acute respiratory syndrome coronavirus 2, Vero C1008, 72 h"}, "[7]": {"assay": "Cytotoxicity against African green monkey Vero E6 cells assessed as cell viability incubated for 48 hrs by CellTiter96 assay", "format": "toxicity, cell-based, Vero C1008", "details": "chlorocebus sabaeus"}},
  "data": [
    {"smiles": "O=C(Nc1ccccc1)c1ccc(COc2ccc(Nc3ncnc4ccccc34)cc2Cl)cc1", "values": [
      {"measurement": "inhibition", "setting": "[1]", "result": 66.3, "unit": "%"},
      {"measurement": "viability at 48 h, 50 µM", "setting": "[2]", "result": 8.05, "unit": "%"},
      {"measurement": "inhibition at 50 µM", "setting": "SARS-CoV-2 [3]", "result": 0, "unit": "%"}
    ]},
    {"smiles": "O=C(Nc1cccc(I)c1)c1ccc(COc2ccc(Nc3ncnc4ccccc34)cc2Cl)cc1", "values": [
      {"measurement": "IC50", "setting": "[4]", "result": 9.12, "unit": "µM"},
      {"measurement": "inhibition", "setting": "[1]", "result": 87.7, "unit": "%"},
      {"measurement": "viability at 48 h, 50 µM", "setting": "[2]", "result": 0, "unit": "%"},
      {"measurement": "inhibition at 50 µM", "setting": "SARS-CoV-2 [3]", "result": 94.5, "unit": "%"}
    ]},
    {"smiles": "CCC(CC)COC(=O)[C@H](C)N[P@](=O)(OC[C@H]1OC(C#N)(c2ccc3c(N)ncnn23)[C@H](O)[C@@H]1O)Oc1ccccc1", "note": "(some centres undefined)", "values": [
      {"measurement": "inhibition at 10 µM", "setting": "SARS-CoV-2 [5]", "result": 99.9, "unit": "%"},
      {"measurement": "Activity", "setting": "Vero C1008", "result": "Non-toxic"}
    ]},
    {"smiles": "Clc1cc(Nc2ncnc3ccccc23)ccc1OCc1ccccc1", "values": [
      {"measurement": "IC50", "setting": "[4]", "result": 3.97, "unit": "µM"},
      {"measurement": "inhibition", "setting": "[1]", "result": 74.6, "unit": "%"},
      {"measurement": "viability at 48 h, 50 µM", "setting": "[2]", "result": 49.3, "unit": "%"},
      {"measurement": "inhibition at 50 µM", "setting": "SARS-CoV-2 [3]", "result": 25.1, "unit": "%"}
    ]},
    {"smiles": "O=C(Nc1ccc(Cl)cc1)c1cccc(COc2ccc(Nc3ncnc4ccccc34)cc2Cl)c1", "values": [
      {"measurement": "inhibition", "setting": "[1]", "result": 69.5, "unit": "%"},
      {"measurement": "viability at 48 h, 50 µM", "setting": "[2]", "result": 9.39, "unit": "%"},
      {"measurement": "inhibition at 50 µM", "setting": "SARS-CoV-2 [3]", "result": 24.9, "unit": "%"}
    ]},
    {"smiles": "O=C(Nc1cccc(C(F)(F)F)c1)c1cccc(COc2ccc(Nc3ncnc4ccccc34)cc2Cl)c1", "values": [
      {"measurement": "viability at 48 h, 50 µM", "setting": "[2]", "result": 26.6, "unit": "%"},
      {"measurement": "inhibition at 50 µM", "setting": "SARS-CoV-2 [3]", "result": 99, "unit": "%"}
    ]},
    {"smiles": "Clc1cc(Nc2ncnc3ccccc23)ccc1OCc1cccc(Br)c1", "values": [
      {"measurement": "IC50", "setting": "[4]", "result": 4.38, "unit": "µM"},
      {"measurement": "inhibition", "setting": "[1]", "result": 82, "unit": "%"},
      {"measurement": "viability at 48 h, 50 µM", "setting": "[2]", "result": 28.1, "unit": "%"},
      {"measurement": "inhibition at 50 µM", "setting": "SARS-CoV-2 [3]", "result": 68.4, "unit": "%"}
    ]},
    {"smiles": "O=C(Nc1ccccc1)c1cccc(COc2ccc(Nc3ncnc4ccccc34)cc2Cl)c1", "values": [
      {"measurement": "IC50", "setting": "[4]", "result": 3.75, "unit": "µM"},
      {"measurement": "inhibition", "setting": "[1]", "result": 98, "unit": "%"},
      {"measurement": "viability at 48 h, 50 µM", "setting": "[2]", "result": 1, "unit": "%"},
      {"measurement": "inhibition at 50 µM", "setting": "SARS-CoV-2 [3]", "result": 68.4, "unit": "%"}
    ]},
    {"smiles": "CS(=O)(=O)CCNCc1ccc(-c2ccc3ncnc(Nc4ccc(OCc5cccc(F)c5)c(Cl)c4)c3c2)o1", "note": "[LAPATINIB]", "values": [
      {"measurement": "inhibition at 10 µM", "setting": "SARS-CoV-2 [5]", "result": 58.8, "unit": "%"},
      {"measurement": "inhibition", "setting": "[1]", "result": 97.1, "unit": "%"},
      {"measurement": "viability at 48 h, 50 µM", "setting": "[2]", "result": 71.1, "unit": "%"},
      {"measurement": "inhibition at 50 µM", "setting": "SARS-CoV-2 [3]", "result": 92.7, "unit": "%"}
    ]},
    {"smiles": "O=C(Nc1ccccc1F)c1ccc(COc2ccc(Nc3ncnc4ccccc34)cc2Cl)cc1", "values": [
      {"measurement": "inhibition", "setting": "[1]", "result": 66.4, "unit": "%"},
      {"measurement": "viability at 48 h, 50 µM", "setting": "[2]", "result": 0, "unit": "%"},
      {"measurement": "inhibition at 50 µM", "setting": "SARS-CoV-2 [3]", "result": 86.7, "unit": "%"}
    ]},
    {"smiles": "O=C(Nc1ccc(Cl)cc1)c1ccc(COc2ccc(Nc3ncnc4ccccc34)cc2Cl)cc1", "values": [
      {"measurement": "IC50", "setting": "[4]", "result": 4.83, "unit": "µM"},
      {"measurement": "inhibition", "setting": "[1]", "result": 73.2, "unit": "%"},
      {"measurement": "viability at 48 h, 50 µM", "setting": "[2]", "result": 0, "unit": "%"},
      {"measurement": "inhibition at 50 µM", "setting": "SARS-CoV-2 [3]", "result": 82.2, "unit": "%"}
    ]},
    {"smiles": "COc1cccc(NC(=O)c2ccc(COc3ccc(Nc4ncnc5ccccc45)cc3Cl)cc2)c1", "values": [
      {"measurement": "inhibition", "setting": "[1]", "result": 49.3, "unit": "%"},
      {"measurement": "viability at 48 h, 50 µM", "setting": "[2]", "result": 22.6, "unit": "%"},
      {"measurement": "inhibition at 50 µM", "setting": "SARS-CoV-2 [3]", "result": 82.2, "unit": "%"}
    ]},
    {"smiles": "COc1cccc(NC(=O)c2cccc(COc3ccc(Nc4ncnc5ccccc45)cc3Cl)c2)c1", "values": [
      {"measurement": "viability at 48 h, 50 µM", "setting": "[2]", "result": 8.66, "unit": "%"},
      {"measurement": "inhibition at 50 µM", "setting": "SARS-CoV-2 [3]", "result": 92.7, "unit": "%"}
    ]},
    {"smiles": "O=C(Nc1cccc(C(F)(F)F)c1)c1ccc(COc2ccc(Nc3ncnc4ccccc34)cc2Cl)cc1", "values": [
      {"measurement": "inhibition", "setting": "[1]", "result": 55.7, "unit": "%"},
      {"measurement": "viability at 48 h, 50 µM", "setting": "[2]", "result": 17.3, "unit": "%"},
      {"measurement": "inhibition at 50 µM", "setting": "SARS-CoV-2 [3]", "result": 90, "unit": "%"}
    ]},
    {"smiles": "O=C(Nc1ccccc1Cl)c1ccc(COc2ccc(Nc3ncnc4ccccc34)cc2Cl)cc1", "values": [
      {"measurement": "inhibition", "setting": "[1]", "result": 30.8, "unit": "%"},
      {"measurement": "viability at 48 h, 50 µM", "setting": "[2]", "result": 3.64, "unit": "%"},
      {"measurement": "inhibition at 50 µM", "setting": "SARS-CoV-2 [3]", "result": 57.7, "unit": "%"}
    ]},
    {"smiles": "O=C(Nc1cccc(I)c1)c1cccc(COc2ccc(Nc3ncnc4ccccc34)cc2Cl)c1", "values": [
      {"measurement": "inhibition", "setting": "[1]", "result": 55.7, "unit": "%"},
      {"measurement": "viability at 48 h, 50 µM", "setting": "[2]", "result": 21, "unit": "%"},
      {"measurement": "inhibition at 50 µM", "setting": "SARS-CoV-2 [3]", "result": 99, "unit": "%"}
    ]},
    {"smiles": "O=C(Nc1ccccc1Cl)c1cccc(COc2ccc(Nc3ncnc4ccccc34)cc2Cl)c1", "values": [
      {"measurement": "inhibition", "setting": "[1]", "result": 53, "unit": "%"},
      {"measurement": "viability at 48 h, 50 µM", "setting": "[2]", "result": 38, "unit": "%"},
      {"measurement": "inhibition at 50 µM", "setting": "SARS-CoV-2 [3]", "result": 95.9, "unit": "%"}
    ]},
    {"smiles": "Fc1cccc(COc2ccc(Nc3ncnc4ccccc34)cc2Cl)c1", "values": [
      {"measurement": "IC50", "setting": "[4]", "result": 3.18, "unit": "µM"},
      {"measurement": "inhibition", "setting": "[1]", "result": 82.6, "unit": "%"},
      {"measurement": "viability at 48 h, 50 µM", "setting": "[2]", "result": 44.8, "unit": "%"},
      {"measurement": "inhibition at 50 µM", "setting": "SARS-CoV-2 [3]", "result": 43.7, "unit": "%"}
    ]},
    {"smiles": "O=C(Nc1ccccc1F)c1cccc(COc2ccc(Nc3ncnc4ccccc34)cc2Cl)c1", "values": [
      {"measurement": "inhibition at 10 µM", "setting": "SARS-CoV-2 [5]", "result": 82.2, "unit": "%"},
      {"measurement": "inhibition", "setting": "[1]", "result": 68.6, "unit": "%"},
      {"measurement": "viability at 48 h, 50 µM", "setting": "[2]", "result": 13.6, "unit": "%"},
      {"measurement": "EC50", "setting": "SARS-CoV-2 [6]", "result": 1100, "unit": "nM"},
      {"measurement": "inhibition at 50 µM", "setting": "SARS-CoV-2 [3]", "result": 96.9, "unit": "%"},
      {"measurement": "CC50 at 48 h", "setting": "[7]", "result": "> 100", "unit": "µM"}
    ]}
  ]
}
